Assay results from article PMC11064044, “Synthesis and Characterization of Piano-Stool Ruthenium(II)–Arene Complexes of Isatin Schiff Bases: Cytotoxicity and DNA Intercalation” (ACS Omega, 2024).

Assays:
[1] = tested on: HEPG2 (hepatocellular carcinoma); test: MTT cell viability assay, HEPG2; format: cell-based, human
Protocol: (§1) HEPG2 (ATCC-HB-8065), MCF-7 (ATCC-CRL-3435), PC-3 (ATCC-CRL-1435), and HEK-293 (ATCC-CRL-1573) cells were purchased from American Type Culture Collection (ATCC). Human cancer cells and embryonic kidney cells were maintained in Roswell Park Memorial Institute (RPMI) media supplemented with 10% fetal bovine serum and 1% penicillin–streptomycin solution in a 37 °C incubator with 5% CO2.
(§2) The cell viability was assessed by using an MTT assay. MTT was purchased from Sigma and prepared in phosphate-buffered saline (5 mM). […] After incubation, 20 μL of MTT solution was added to each well and incubated at 37 °C for an additional 4h. Finally, the MTT solution was removed, and 200 μL of DMSO was added to each well. The absorbance was measured at 590 nm by using a spectrometer (Tecan). The IC50 values were calculated from the MTT viability data using the software CalcuSyn (Biosoft).

[2] = tested on: PC-3 (human prostate cancer); test: MTT cell viability assay, PC-3; format: cell-based; conditions: 72 h
Protocol: as §1, §2

[3] = tested on: MCF-7 (human breast cancer); test: MTT cell viability assay, MCF-7; format: cell-based
Protocol: as §1, §2

[4] = tested on: HEK-293 (human embryonic kidney); test: MTT cell viability assay, HEK-293; format: cell-based
Protocol: as §1, §2

Row | IC50 ([1]; Homo sapiens, HepG2, 72 h) [µM] | IC50 ([2]; Homo sapiens) [µM] | IC50 ([3]; Homo sapiens, MCF7, 72 h) [µM] | Structure (SMILES) | IC50 ([4]; Homo sapiens, HEK293, 72 h) [µM] | IC50 ([1]; 72 h) [µM] | IC50 [2] [µM] | IC50 ([3]; 72 h) [µM] | IC50 ([4]; 72 h) [µM]
1 | 43 ± 1.8 | 58.1 ± 3.3 | 52.6 ± 3.1 | CCCCN1C(=O)/C(=N/c2ccccc2)c2ccccc21 [3b] | 61.9 ± 0.6 | – | – | – | –
2 | 3.9 ± 0.3 | 58.4 ± 2 | 27.2 ± 2.4 | CCCCN1C(=O)/C(=N/c2c(C)cc(C)cc2C)c2ccccc21 [3c] | 26.9 ± 1.6 | – | – | – | –
3 | – | – | – | N.N.[Cl][Pt][Cl] [cisplatin, reference compound] | – | 22.2 ± 0.5 | 18.5 ± 0.7 | 20.8 ± 2.3 | 10.7 ± 0.8

Row | Structure (SMILES) | IC50 ([1]; Homo sapiens, HepG2, 72 h) [µM] | IC50 ([2]; Homo sapiens) [µM] | IC50 ([3]; Homo sapiens, MCF7, 72 h) [µM] | IC50 ([4]; Homo sapiens, HEK293, 72 h) [µM] | IC50 ([1]; 72 h) [µM] | IC50 [2] [µM] | IC50 ([3]; 72 h) [µM] | IC50 ([4]; 72 h) [µM]
4 | CCCCN1C(=O)C(=O)c2ccccc21 [compound 2, N-butylisatin] | 226.5 ± 1.5 | 58.2 ± 3.2 | 100 ± 2.4 | 127 ± 2.8 | – | – | – | –
